Results published in patent US20230233566A1, “INHIBITION OF BMI1 ELIMINATES CANCER STEM CELLS AND ACTIVATES ANTITUMOR IMMUNITY” (The Regents of the University of California, priority 2020, published 2023).

Experiments:
CD8+ T cells = assay: Immunostaining of CD8+ T cells in HNSCC; format: in vivo, mouse; settings: 4NQO-induced HNSCC, treated 4 weeks
Procedure: (§1) The immunocomplexes were detected and visualized using related secondary antibodies conjugated with Cy2 or Cy3 (Jackson ImmunoResearch Laboratories). […] At least three sections from each HNSCC lesions were immunostained and analyzed. Tumor cells (>150) and CD8+, Ac-casp3+ and Tomato^+ cells of these tumor cell areas were counted manually in each section. The percentage of CD8+, Ac-casp3^+ and Tomato^+ cells were calculated by dividing those cells with tumor cells and averaged from the sections.

HNSCC tumor cells = assay: Anti-active caspase-3 (Ac-casp3) immunostaining of apoptosis in HNSCC; format: in vivo, mouse; settings: 4NQO-induced HNSCC, treated 4 weeks
Procedure: as §1

BMI1+ CSCs = assay: In vivo labeling and lineage tracing of Tomato+ BMI1+ CSCs; design: species or system mouse; settings: tamoxifen 1 day prior to sacrifice, treated 4 weeks
Procedure: as §1

BMI1 = assay: Western blot of BMI1 and H2AUb in SCC23 and SCC1 cells; format: cell-based, human
Procedure: Human SCC23 and SCC1 cells were grown in DMEM containing 10% FBS and antibiotics (streptomycin and penicillin) at 37° C. in a 5% CO2 atmosphere. To generate lentiviruses, scramble control (shCtrl, Addgene, Cat #1864; see Sarbassov et al Science 2005 Feb. 18; 307(5712):1098-101) and BMI1 specific shRNA lentiviral plasmids (shBmi1, Sigma-Aldrich, Cat #TRCN0000020156, comprising […], SEQ ID NO:35) were transfected into HEK293T cells with two helper plasmids psPAX2 (Addgene, Cat #12260) and pMD2.G (Addgene, Cat #12259). Viral supernatant was harvested 72 h after transfection and passed through a 0.45 μm filter to remove cell debris and live cells. Collected lentiviruses were used directly to infect cells with the addition of polybrene (Sigma-Aldrich, Cat #H9268), or frozen at −80° C. for later use. […]
Cells were lysed using the radioimmunoprecipitation assay (RIPA) buffer (Sigma-Aldrich, Cat #R0278) added with a cocktail of protease inhibitors (Thermo Fisher Scientific, Cat ##78430) and phosphatase inhibitors (Sigma-Aldrich, Cat #4906845001). […] The signals were detected using the Clarity Western ECL kit (Bio-Rad, Cat #1705060). […] After treatment, supernatants were collected, and the protein levels of CCL5, CXCL9, CXCL10 and CXCL11 were measured with ELISA (R&D Systems, Cat #DRN00B, DCX900, DIP100, DCX110) according to the manufacturer's instructions.

cytosolic dsDNA = assay: Cytosolic dsDNA staining (PicoGreen/MitoTracker); format: cell-based, human; settings: SCC23 and SCC1 cells
Procedure: Following the treatment, SCC23 and SCC1 cells were incubated with culture media containing PicoGreen (dsDNA stain, 200-fold dilution, Thermo Fisher Scientific, Cat #P11496) and MitoTracker ([…], 100 nM, Thermo Fisher Scientific, Cat #M7512). One hour after incubation, cells were fixed with 4% paraformaldehyde for 10 min. Cells were then washed twice with PBS and stained with DAPI (Sigma-Aldrich, Cat #D9542) and mounted with SlowFade Antifade Reagents (Thermo Fisher Scientific, Cat #536937). Staining was imaged and assessed using a Leica SP5X laser scanning confocal microscope.

[1] = test system: cGAS-STING-IRF3 signaling; assay: Western blot of phosphorylated STING, TBK1, IRF3; format: cell-based, human
Procedure: Cells were lysed using the radioimmunoprecipitation assay (RIPA) buffer (Sigma-Aldrich, Cat #R0278) added with a cocktail of protease inhibitors (Thermo Fisher Scientific, Cat ##78430) and phosphatase inhibitors (Sigma-Aldrich, Cat #4906845001). Protein extracts were resolved on a 10% or 15% SDS polyacrylamide gel and then transferred to a polyvinylidene difluoride membrane. Membranes were blocked with 5% milk for 1 h and incubated with primary antibodies overnight at 4° C. Primary antibodies used in this study were: anti-phospho-STING (Ser366) (1:1,000; Cell Signaling Technology, Cat #19781), anti-STING (1:1,000; Cell Signaling Technology, Cat #13647), anti-phospho-TBK1 (Ser172) (1:1,000; Cell Signaling Technology, Cat #5483), anti-TBK1 (1:1,000; Cell Signaling Technology, Cat #3504), anti-phospho-IRF3 (Ser396) (1:1,000; Cell Signaling Technology, Cat #29047), anti-IRF3 (1:1,000; Cell Signaling Technology, Cat #4302), anti-BMI1 (1:1,000; Cell Signaling Technology, Cat #6964), anti-Ubiquityl-Histone H2A (Lys119) (1:1000, Cell Signaling Technology, Cat #8240), anti-phospho Histone H2A.X (Ser139) (1:1000; Cell Signaling Technology, Cat #9718), and anti-GAPDH (1:1000; Cell Signaling Technology, Cat #5174), anti-Histone H3 (1:2,000; Cell Signaling Technology, Cat #4499). The signals were detected using the Clarity Western ECL kit (Bio-Rad, Cat #1705060). To measure the protein levels of CCL5, CXCL9, CXCL10 and CXCL11, cells were treated with PTC209 or shBMI1 knockdown for 48 hr. After treatment, supernatants were collected, and the protein levels of CCL5, CXCL9, CXCL10 and CXCL11 were measured with ELISA (R&D Systems, Cat #DRN00B, DCX900, DIP100, DCX110) according to the manufacturer's instructions.

[2] = test system: promoters of CCL5, CXCL9, CXCL10 and CXCL11; assay: ChIP-qPCR on chemokine promoters; format: cell-based, human; settings: SCC23 cells
Procedure: ChIP-qPCR assays were performed as previously described (Ding et al, 2013). Briefly, SCC cells were sequentially treated with dimethyl 3,3′-dithiobispropionimidate-HCl (DTBP; Cat #20665, Thermo Fisher Scientific) solution and formaldehyde, and harvested with a cell scraper. The cell pellet was lysed with ChIP lysis buffer and sonicated to generate 200-500 bp DNA fragments with a sonicator. The fragmented chromatins were immunoprecipitated with anti-BMI1 (Cell Signaling Technology, Cat #6964), anti-Ubiquityl-Histone H2A (Lys119) (Cell Signaling Technology, Cat #8240) overnight at 4° C. The precipitated DNA-chromatin products were purified with ChIP DNA clean & concentrator kit (Cat #D5205, Zymo Research) and the DNA levels were quantified by qPCR. Data is presented as the percentage of input DNA.

BMI-1 = settings: HEK293T cell line; cited from earlier work
xenografted HNSCC = settings: human tumor cells in immunodeficient mice; cited from earlier work

Compound: COc1cc(Br)c(Nc2nc(-c3c(C)nc4ncccn34)cs2)c(Br)c1 [PTC209, N-(2,6-dibromo-4-methoxyphenyl)-4-(2-methylimidazo[1,2-a]pyrimidin-3-yl)thiazol-2-amine]
- CD8+ T cell infiltration in HNSCC (CD8+ T cells): could induce CD8+ T cell infiltration in tumors
- apoptosis in Tomato+ BMI1+ CSCs (HNSCC tumor cells): able to induce apoptosis in Tomato^+ CSCs
- BMI1+ CSCs in HNSCC (in vivo labeling) (BMI1+ CSCs): able to reduce BMI1+ CSCs
- BMI1 and H2AUb levels (BMI1): reduced BMI1 and H2AUb in SCC23 and SCC1 cells in a dose-dependent manner
- accumulation of cytosolic dsDNA (cytosolic dsDNA): induced the accumulation of cytosolic dsDNA
- phosphorylation of STING (S366), TBK1 (S172) and IRF3 (S396) ([1]; SCC1 cells): induction of phosphorylation of STING (S366), TBK1 (S172) and IRF3 (S396) in SCC1 cells
- phosphorylation of STING (S366), TBK1 (S172) and IRF3 (S396) ([1]; SCC23 cells): induction of phosphorylation of STING (S366), TBK1 (S172) and IRF3 (S396) in SCC23 cells
- levels of BMI1 on the promoters of CCL5, CXCL9, CXCL10 and CXCL11 [2]: significantly reduced the levels of BMI1 on these promoters in SCC23 cells
- levels of H2AUb marks on the promoters of CCL5, CXCL9, CXCL10 and CXCL11 [2]: significantly decreased in SCC23 cells
- IC50 (BMI-1): 0.5 µM
- xenografted HNSCC growth (xenografted HNSCC): inhibit xenografted HNSCC growth
